Tested on: C57BL/6 male mice
Assay: In vivo delivery study of lipid nucleic acid mixture (oral gavage, RT-qPCR of PGY-sRNA-26 in tissues)
Set-up: species or system mouse
Settings: 100 μg lipid:10 nmol PGY-sRNA-26, sampled after 12 hours; for oral delivery of single-stranded sRNA nucleic acids into mouse heart tissue: vs free uptake group; for oral delivery of single-stranded sRNA nucleic acids into mouse intestinal tissue: intestine; for oral delivery of single-stranded sRNA nucleic acids into mouse pancreatic tissue: pancreas
Summary of the method: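 Lipid (100 μg) and 10 nmol 3'-methylated single-stranded PGY-sRNA-26 were heated at 90 °C for 15 min, then given by oral gavage to mice fasted 12 h. Controls were saline and free sRNA. Blood and tissues were taken at 12 h, and levels were measured by stem-loop RT-qPCR relative to U6.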

C=C(C)CCOC(=O)CCCCCCCCCCCCCCCCCCC [Lipid 814, 3-methylbut-3-enyl icosanoate]
can effectively orally deliver: oral delivery of single-stranded sRNA nucleic acids into mouse blood | oral delivery of single-stranded sRNA nucleic acids into mouse brain tissue | oral delivery of single-stranded sRNA nucleic acids into mouse femur | oral delivery of single-stranded sRNA nucleic acids into mouse heart tissue | oral delivery of single-stranded sRNA nucleic acids into mouse intestinal tissue | oral delivery of single-stranded sRNA nucleic acids into mouse kidney tissue | oral delivery of single-stranded sRNA nucleic acids into mouse liver tissue | oral delivery of single-stranded sRNA nucleic acids into mouse lung tissue | oral delivery of single-stranded sRNA nucleic acids into mouse pancreatic tissue | oral delivery of single-stranded sRNA nucleic acids into mouse spleen tissue | oral delivery of single-stranded sRNA nucleic acids into mouse stomach tissue

C=C(C)CCOC(=O)CCCCCCCCCCCCCCCCCCCCC [Lipid 815, 3-methylbut-3-enyl docosanoate]
can effectively orally deliver: oral delivery of single-stranded sRNA nucleic acids into mouse blood | oral delivery of single-stranded sRNA nucleic acids into mouse brain tissue | oral delivery of single-stranded sRNA nucleic acids into mouse femur | oral delivery of single-stranded sRNA nucleic acids into mouse heart tissue | oral delivery of single-stranded sRNA nucleic acids into mouse intestinal tissue | oral delivery of single-stranded sRNA nucleic acids into mouse kidney tissue | oral delivery of single-stranded sRNA nucleic acids into mouse liver tissue | oral delivery of single-stranded sRNA nucleic acids into mouse lung tissue | oral delivery of single-stranded sRNA nucleic acids into mouse pancreatic tissue | oral delivery of single-stranded sRNA nucleic acids into mouse spleen tissue | oral delivery of single-stranded sRNA nucleic acids into mouse stomach tissue

CC/C=C\CCOC(=O)[C@H](O)C(C)C [Lipid 816, [(Z)-hex-3-enyl] (2R)-2-hydroxy-3-methylbutanoate]
can effectively orally deliver: oral delivery of single-stranded sRNA nucleic acids into mouse blood | oral delivery of single-stranded sRNA nucleic acids into mouse brain tissue | oral delivery of single-stranded sRNA nucleic acids into mouse femur | oral delivery of single-stranded sRNA nucleic acids into mouse heart tissue | oral delivery of single-stranded sRNA nucleic acids into mouse intestinal tissue | oral delivery of single-stranded sRNA nucleic acids into mouse kidney tissue | oral delivery of single-stranded sRNA nucleic acids into mouse liver tissue | oral delivery of single-stranded sRNA nucleic acids into mouse lung tissue | oral delivery of single-stranded sRNA nucleic acids into mouse pancreatic tissue | oral delivery of single-stranded sRNA nucleic acids into mouse spleen tissue | oral delivery of single-stranded sRNA nucleic acids into mouse stomach tissue

CCCC/C=C\CCCCCCCC(=O)OCCCCCCCCCCCCCCCCCCCCCC [Lipid 817, docosyl (Z)-tetradec-9-enoate]
can effectively orally deliver: oral delivery of single-stranded sRNA nucleic acids into mouse blood | oral delivery of single-stranded sRNA nucleic acids into mouse brain tissue | oral delivery of single-stranded sRNA nucleic acids into mouse femur | oral delivery of single-stranded sRNA nucleic acids into mouse heart tissue | oral delivery of single-stranded sRNA nucleic acids into mouse intestinal tissue | oral delivery of single-stranded sRNA nucleic acids into mouse kidney tissue | oral delivery of single-stranded sRNA nucleic acids into mouse liver tissue | oral delivery of single-stranded sRNA nucleic acids into mouse lung tissue | oral delivery of single-stranded sRNA nucleic acids into mouse pancreatic tissue | oral delivery of single-stranded sRNA nucleic acids into mouse spleen tissue | oral delivery of single-stranded sRNA nucleic acids into mouse stomach tissue

CCCCCC/C=C\CCCCCCCC(=O)OCCCCCCCCCCCCCCCCC [Lipid 818, heptadecyl (Z)-hexadec-9-enoate]
can effectively orally deliver: oral delivery of single-stranded sRNA nucleic acids into mouse blood | oral delivery of single-stranded sRNA nucleic acids into mouse brain tissue | oral delivery of single-stranded sRNA nucleic acids into mouse femur | oral delivery of single-stranded sRNA nucleic acids into mouse heart tissue | oral delivery of single-stranded sRNA nucleic acids into mouse intestinal tissue | oral delivery of single-stranded sRNA nucleic acids into mouse kidney tissue | oral delivery of single-stranded sRNA nucleic acids into mouse liver tissue | oral delivery of single-stranded sRNA nucleic acids into mouse lung tissue | oral delivery of single-stranded sRNA nucleic acids into mouse pancreatic tissue | oral delivery of single-stranded sRNA nucleic acids into mouse spleen tissue | oral delivery of single-stranded sRNA nucleic acids into mouse stomach tissue

CCCCCC/C=C\CCCCCCCC(=O)OCCCCCCCCCCCCCCCCCCCCCCCC [Lipid 819, tetracosyl (Z)-hexadec-9-enoate]
can effectively orally deliver: oral delivery of single-stranded sRNA nucleic acids into mouse blood | oral delivery of single-stranded sRNA nucleic acids into mouse brain tissue | oral delivery of single-stranded sRNA nucleic acids into mouse femur | oral delivery of single-stranded sRNA nucleic acids into mouse heart tissue | oral delivery of single-stranded sRNA nucleic acids into mouse intestinal tissue | oral delivery of single-stranded sRNA nucleic acids into mouse kidney tissue | oral delivery of single-stranded sRNA nucleic acids into mouse liver tissue | oral delivery of single-stranded sRNA nucleic acids into mouse lung tissue | oral delivery of single-stranded sRNA nucleic acids into mouse pancreatic tissue | oral delivery of single-stranded sRNA nucleic acids into mouse spleen tissue | oral delivery of single-stranded sRNA nucleic acids into mouse stomach tissue

CCCCCC/C=C\CCCCCCCC(=O)OCCCCCCCCCCCCCCCCCCCCC [Lipid 820, henicosyl (Z)-hexadec-9-enoate]
can effectively orally deliver: oral delivery of single-stranded sRNA nucleic acids into mouse blood | oral delivery of single-stranded sRNA nucleic acids into mouse brain tissue | oral delivery of single-stranded sRNA nucleic acids into mouse femur | oral delivery of single-stranded sRNA nucleic acids into mouse heart tissue | oral delivery of single-stranded sRNA nucleic acids into mouse intestinal tissue | oral delivery of single-stranded sRNA nucleic acids into mouse kidney tissue | oral delivery of single-stranded sRNA nucleic acids into mouse liver tissue | oral delivery of single-stranded sRNA nucleic acids into mouse lung tissue | oral delivery of single-stranded sRNA nucleic acids into mouse pancreatic tissue | oral delivery of single-stranded sRNA nucleic acids into mouse spleen tissue | oral delivery of single-stranded sRNA nucleic acids into mouse stomach tissue

CCCCCC/C=C\CCCCCCCC(=O)OCCCCCCCCCCCCCCC [Lipid 821, pentadecyl (Z)-hexadec-9-enoate]
can effectively orally deliver: oral delivery of single-stranded sRNA nucleic acids into mouse blood | oral delivery of single-stranded sRNA nucleic acids into mouse brain tissue | oral delivery of single-stranded sRNA nucleic acids into mouse femur | oral delivery of single-stranded sRNA nucleic acids into mouse heart tissue | oral delivery of single-stranded sRNA nucleic acids into mouse intestinal tissue | oral delivery of single-stranded sRNA nucleic acids into mouse kidney tissue | oral delivery of single-stranded sRNA nucleic acids into mouse liver tissue | oral delivery of single-stranded sRNA nucleic acids into mouse lung tissue | oral delivery of single-stranded sRNA nucleic acids into mouse pancreatic tissue | oral delivery of single-stranded sRNA nucleic acids into mouse spleen tissue | oral delivery of single-stranded sRNA nucleic acids into mouse stomach tissue
